# Experimental data taken from patent US12129237B2, “Substituted diaminocarboxamide and diaminocarbonitrile pyrimidines, compositions thereof, and methods of treatment therewith” (SIGNAL PHARMACEUTICALS, LLC, priority 2011, dated 2024).
# Target: T1, JNK1 (Homo sapiens, UniProt P45983)
# T1 construct: purchased Carna Biosciences
# Assay: JNK1 biochemical assays (one or more of: time resolved fluorescence, Z'-LYTE Cascade, radioactive)
# Conditions: Table 2; JNK1 IC50 activity level; read-out: Act. Level
# T1 sequence (P45983 whole entry): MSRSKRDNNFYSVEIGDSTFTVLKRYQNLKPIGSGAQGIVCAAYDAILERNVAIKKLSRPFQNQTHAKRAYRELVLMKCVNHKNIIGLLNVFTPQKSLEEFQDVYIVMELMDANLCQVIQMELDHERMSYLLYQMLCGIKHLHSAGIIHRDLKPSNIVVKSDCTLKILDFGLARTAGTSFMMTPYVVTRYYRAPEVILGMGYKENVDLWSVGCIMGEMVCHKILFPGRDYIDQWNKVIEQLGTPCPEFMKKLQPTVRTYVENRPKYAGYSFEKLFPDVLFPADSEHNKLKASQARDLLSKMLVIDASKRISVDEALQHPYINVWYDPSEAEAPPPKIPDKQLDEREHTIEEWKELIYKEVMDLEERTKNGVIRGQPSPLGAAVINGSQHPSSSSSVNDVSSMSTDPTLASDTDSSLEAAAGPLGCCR
row,Compound,IC50 [nM]
1,"COc1ccccc1Nc1ncc(C(N)=O)c(Nc2ccccc2)n1 [Example B-15, 2-(2-methoxyphenylamino)-4-(phenylamino)pyrimidine-5-carboxamide]",< 200
2,"NC(=O)c1cnc(NCCc2ccccc2)nc1Nc1ccccc1 [Example B-71, 2-(phenethylamino)-4-(phenylamino)pyrimidine-5-carboxamide]",200 to 800
3,"COc1cccc(Nc2ncc(C(N)=O)c(Nc3ccccc3)n2)c1 [Example B-25, 2-(3-methoxyphenylamino)-4-(phenylamino)pyrimidine-5-carboxamide]",< 200
4,"NC(=O)c1cnc(NC2CCc3ccccc32)nc1Nc1ccccc1 (stereo not shown) [Example B-31, 2-(2,3-dihydro-1H-inden-1-ylamino)-4-(phenylamino)pyrimidine-5-carboxamide]",200 to 800
5,"COc1ccc(CCNc2ncc(C(N)=O)c(Nc3ccccc3)n2)cc1OC [Example B-66, 2-(3,4-dimethoxyphenethylamino)-4-(phenylamino)pyrimidine-5-carboxamide]",200 to 800

# Same assay, conditions: one or more of the JNK1 biochemical assays; read-out: Act. Level (JNK1 IC50 activity level)
row,Compound,IC50 [nM]
1,"CC1CCC1Nc1nc(N[C@H]2CC[C@H](O)CC2)ncc1C(N)=O (stereo partly shown) [Example 244, 2-((1r,4r)-4-hydroxycyclohexylamino)-4-(2-methylcyclobutylamino)pyrimidine-5-carboxamide]",< 200
2,"CCO[C@H]1CC[C@H](Nc2ncc(C(N)=O)c(NC(C)(C)C)n2)CC1 [Example 211, 4-(tert-butylamino)-2-((1r,4r)-4-ethoxycyclohexylamino)pyrimidine-5-carboxamide]",< 200
3,"CC(C)(C)Nc1nc(N[C@H]2CCCC[C@H](O)C2)ncc1C(N)=O [Example 387, 4-(tert-butylamino)-2-((1S,3S)-3-hydroxycycloheptylamino)pyrimidine-5-carboxamide]",< 200
4,"CO[C@H]1CC[C@H](Nc2ncc(C(N)=O)c(NC3(C)CCCCC3)n2)CC1 [Example 358, 2-((1r,4r)-4-methoxycyclohexylamino)-4-(1-methylcyclohexylamino)pyrimidine-5-carboxamide]",< 200
5,"NC(=O)c1cnc(N[C@H]2CC[C@H](O)CC2)nc1NC12CC(C(F)(F)F)(C1)C2 [Example 440, 2-((1r,4r)-4-hydroxycyclohexylamino)-4-(3-(trifluoromethyl)bicyclo[1.1.1]pentan-1-ylamino)pyrimidine-5-carboxamide]",< 200

# Same assay, conditions: tested in one or more of the JNK1 biochemical assays; read-out: Act. Level (JNK1 biochemical assay IC50 activity level)
row,Compound,IC50 [nM]
1,"CN(C)C(=O)[C@H]1CC[C@H](Nc2ncc(C(N)=O)c(N[C@@H]3CCCOC3)n2)CC1 [Example A-194, 2-((1r,4R)-4-(dimethylcarbamoyl)cyclohexylamino)-4-((R)-tetrahydro-2H-pyran-3-ylamino)pyrimidine-5-carboxamide]",< 200
2,"CN[C@H]1CC[C@H](Nc2ncc(C(N)=O)c(N[C@@H]3CCC[C@H](O)C3)n2)CC1 [Example A-49, 4-((1R,3S)-3-hydroxycyclohexylamino)-2-((1r,4R)-4-(methylamino)cyclohexylamino)pyrimidine-5-carboxamide]",< 200
3,"CCO[C@H]1CC[C@H](Nc2ncc(C(N)=O)c(NC3CCC[C@H](O)C3)n2)CC1 (stereo partly drawn) [Example A-58, 2-((1r,4R)-4-ethoxycyclohexylamino)-4-((1R,3S)-3-hydroxycyclohexylamino)pyrimidine-5-carboxamide]",< 200
4,"CNC(=O)[C@H]1CC[C@H](Nc2ncc(C(N)=O)c(N[C@@H]3CCC[C@H](O)C3)n2)CC1 [Example A-56, 4-((1R,3S)-3-hydroxycyclohexylamino)-2-((1r,4R)-4-(methylcarbamoyl)cyclohexylamino)pyrimidine-5-carboxamide]",< 200
5,"CN(C)C(=O)[C@H]1CC[C@@H](Nc2nc(NC3CCOCC3)ncc2C(N)=O)CC1 [Example A-116, 4-((1s,4s)-4-(dimethylcarbamoyl)cyclohexylamino)-2-(tetrahydro-2H-pyran-4-ylamino)pyrimidine-5-carboxamide]",200 to 800
6,"CCO[C@H]1CC[C@H](Nc2ncc(C(N)=O)c(N[C@@H]3CCC(O)C3)n2)CC1 (stereo partly drawn) [Example A-96, 2-((1r,4R)-4-ethoxycyclohexylamino)-4-((1R,3S)-3-hydroxycyclopentylamino)pyrimidine-5-carboxamide]",< 200
